# Where two headings read alike, the source gives them in different places.
# Legend:
# [1] = tested on: S. aureus FDA-209-p; test: Antimicrobial activity test: MIC by the agar plate dilution method, S. aureus FDA-209-p; type: cell-based, Staphylococcus aureus; settings: inoculum 1×10^6 cells/ml
# Protocol: (§1) In order to investigate the in vitro activity of the under-mentioned compounds against various bacteria, the minimal inhibitory concentration (MIC) values were determined by the agar plate dilution method [see Chemotherapy, 22, 1126-1128 (1974)].
# (§2) Each test inoculum was adjusted to 1×10^6 cells/ml (O.D., 600 mμ: 0.07-0.16).
# [2] = tested on: E. coli No. 29; test: Antimicrobial activity test: MIC by the agar plate dilution method, E. coli No. 29; type: cell-based
# Protocol: as §1, §2
# [3] = tested on: K. pneumoniae NCTC-9632; test: Antimicrobial activity test: MIC by the agar plate dilution method, K. pneumoniae NCTC-9632; type: cell-based; settings: inoculum 1×10^6 cells/ml
# Protocol: as §1, §2
# [4] = tested on: P. mirabilis 1287; test: Antimicrobial activity test: MIC by the agar plate dilution method, P. mirabilis 1287; type: cell-based; settings: P. mirabilis 1287; inoculum 1×10^6 cells/ml
# Protocol: as §1, §2
# [5] = tested on: S. marcescens IFO-12648; test: Antimicrobial activity test: MIC by the agar plate dilution method, S. marcescens IFO-12648; type: cell-based
# Protocol: as §1, §2
# [6] = tested on: P. aeruginosa NCTC-10490; test: Antimicrobial activity test: MIC by the agar plate dilution method, P. aeruginosa NCTC-10490; type: cell-based; settings: inoculum 1×10^6 cells/ml
# Protocol: as §1, §2
# [7] = tested on: M. morganii ATCC-25830; test: Antimicrobial activity test: MIC by the agar plate dilution method, M. morganii ATCC-25830; type: cell-based; settings: inoculum 1×10^6 cells/ml
# Protocol: as §1, §2
# [8] = E. coli No. 29, inoculum 1×10^6 cells/ml
# [9] = S. marcescens IFO-12648, inoculum 1×10^6 cells/ml
Substance,MIC [1] [µg/mL],"MIC [2, 8] [µg/mL]",MIC [3] [µg/mL],MIC [4] [µg/mL],MIC [5] [µg/mL],MIC [6] [µg/mL],MIC [7] [µg/mL],"MIC [5, 9] [µg/mL]",MIC [2] [µg/mL]
"Benzhydryl (6S,7S)-7-[2-(2-tritylaminothiazol-4-yl)-2-methoxyiminoacetamido]-3-[(1,3,4-thiadiazol-2-yl)thiomethyl]-Δ^3 -O-2-isocephem-4-carboxylate (syn-isomer) [Example 58]",0.39,≤ 0.025,≤ 0.025,≤ 0.025,0.39,25,,,
Benzyl7-[2-(2-aminothiazol-4-yl)-2-methoxyiminoacetamido]-3-[(carbamoyloxy)methyl]-Δ^3 -O-2-isocephem-4-carboxylate (syn-isomer) [Example 3],0.39,0.2,0.39,≤ 0.025,0.39,1.56,≤ 0.025,,
"7-[2-(2-Aminothiazol-4-yl)-2-[(2-butenyl)oxyimino]acetamido]-3-[(1,3,4-thiadiazol-2-yl)thiomethyl]-Δ^3 -O-2-isocephem-4-carboxylic acid trifluoroacetate (syn-isomer) [Example 38]",0.39,0.1,0.2,0.2,0.78,1.56,0.39,,
7-2-(Thiazol-4-yl)-2-tert-butoxycarbonylmethoxyiminoacetamido]-Δ^3 -O-2-isocephem-4-carboxylic acid (syn-isomer) [Example 19],0.39,≤ 0.025,≤ 0.025,≤ 0.025,,3.13,≤ 0.025,0.05,
"Benzhydryl 7-[2-(2-tritylaminothiazol-4-yl)-2 -methoxyiminoacetamido]-3-[(1,2,3-thiadiazol-5-yl)thiomethyl]-Δ^3 -O-2-isocephem-4-carboxylate (syn-isomer) [Example 51]",,≤ 0.025,≤ 0.025,≤ 0.025,,0.78,≤ 0.025,0.1,
"Benzhydryl (6S,7S)-7-[2-(2-aminothiazol-4-yl)-2-cyclopropylmethyloxyiminoacetamido]-3-[(1,2,3-thiadiazol-5-yl)thiomethyl]-Δ^3 -O-2-isocephem-4-carboxylate (syn-isomer) [Example 64]",,≤ 0.025,≤ 0.025,≤ 0.025,,1.56,≤ 0.025,0.05,
"Benzhydryl 7-[2-(2-tritylaminothiazol-4-yl)-2-benzyloxyiminoacetamido]-3-[(1,3,4-thiadiazol-2-yl)thiomethyl]-Δ^3 -O-2-isocephem-4-carboxylate (syn-isomer) [Example 47]",,≤ 0.025,≤ 0.025,≤ 0.025,,3.13,≤ 0.025,0.1,
"Benzhydryl 7-[2-(2-formamidothiazol-4-yl)-2-(2-chloroethoxy)iminoacetamido-]-3-[(1,3,4-thiadiazol-2-yl)thiomethyl]-Δ^3 -O-2-isocephem-4-carboxylate (syn-isomer) [Example 32]",0.39,0.05,0.1,0.05,0.78,,0.1,,
"Benzhydryl (6S,7S)-7-[2-(2-tritylaminothiazol-4-yl)-2-cyclopropylmethyloxyiminoacetamido]-3-[(1,2,3-thiadiazol-5-yl)thiomethyl]-Δ^3 -O-2-isocephem-4-carboxylate (syn-isomer) [Example 63]",,≤ 0.025,≤ 0.025,≤ 0.025,,0.78,,0.05,
"Benzyl 7-[2-(2-chloroacetamidothiazol-4-yl)-2-methoxyiminoacetamido]-3-[(1,3,4-thiadiazol-2-yl)thiomethyl]-Δ^3 -O-2-isocephem-4-carboxylate (syn-isomer) [Example 10]",0.39,,0.39,0.1,0.39,,0.2,,0.39
"Benzhydryl 7-[2-(2-tritylaminothiazol-4-yl)-2-cyanomethyloxyiminoacetamido]-3-[(1,2,3-thiadiazol-5-yl)thiomethyl]-Δ^3 -O-2-isocephem-4-carboxylate (syn-isomer) [Example 52]",,0.1,0.2,0.1,0.78,0.39,0.05,,
"(6S,7S)-7-[2-(2-Aminothiazol-4-yl)-2-cyclopropylmethyloxyiminoacetamido]-3- [(1,2,3-thiadiazol-5-yl)thiomethyl]-Δ^3 -O-2-isocephem-4-carboxylic acid (syn-isomer) [Example 65]",,0.1,0.39,0.2,0.78,0.78,0.05,,
"Benzhydryl (6S,7S)-7-[2-(2-tritylaminothiazol-4-yl)- 2-cyanomethoxyiminoacetamido]-3-[(1,3,4-thiadiazol-2-yl)thiomethyl]-Δ^3 -O-2-isocephem-4-carboxylate (syn-isomer) [Example 61]",,0.05,0.05,≤ 0.025,0.78,3.13,≤ 0.025,,
"Benzhydryl 7-[2-(2-tritylaminothiazol-4-yl)-2-[(3-butenyl)oxyimino]acetamido]-3-[(1,3,4-thiadiazol-2-yl)thiomethyl]-Δ^3 -O-2-isocephem-4-carboxylate (syn-isomer) [Example 39]",,0.2,0.2,0.2,0.78,1.56,0.39,,
"7-[2-(2-Chloroacetamidothiazol-4-yl)-2-methoxyiminoacetamido]-3-[(1,3,4-thiadiazol-2-yl)thiomethyl]-Δ^3 -O-2-isocephem-4-carboxylic acid (syn-isomer) [Example 11]",,0.05,0.2,≤ 0.025,,6.25,≤ 0.025,0.2,
"Benzhydryl 7-[2-(2-tritylaminothiazol-4-yl)-2-cyclopropylmethyloxyiminoacetamido]-3-[(1,2,3-thiadiazol-5-yl)thiomethyl]-Δ^3 -O-2-isocephem-4-carboxylate (syn-isomer) [Example 53]",,0.05,,0.1,0.78,0.39,0.05,,
Benzyl 7-[2-(2-chloroacetamidothiazol-4-yl)-2-methoxyiminoacetamido]-3-[(carbamoyloxy)methyl]-Δ^3 -O-2-isocephem-4-carboxylate (syn-isomer) [Example 1],,≤ 0.025,,≤ 0.025,,3.13,,0.1,
"Benzhydryl 7-[2-(2-tritylaminothiazol-4-yl)-2-allyloxyiminoacetamido]-3-[(1,3,4-thiadiazol-2-yl)thiomethyl]-Δ^3 -O-2-isocephem-4-carboxylate (syn-isomer) [Example 43]",,,0.78,0.1,,50,1.56,6.25,0.39
"Benzyl 7-[2-(2-chloroacetamidothiazol-4-yl)-2allyloxyiminoacetamido]-3-[(1,3,4-thiadiazol-2-yl)thiomethyl]-Δ^3 -O-2-isocephem-4-carboxylate (syn-isomer) [Example 14]",,0.05,0.1,≤ 0.025,,3.13,,0.1,
"7-[2-(2-Aminothiazol-4-yl)-2-[(pyrazol-3-yl)methoxyiminoacetamido]-3-[(1,3,4-thiadiazol-2-yl)thiomethyl]-Δ^3 -O-2-isocephem-4-carboxylic acid dihydrochloride (syn-isomer) [Example 24]",,,0.39,≤ 0.025,0.39,12.5,0.1,,0.39
"7-[2-(2-Aminothiazol-4-yl)-2-(2-fluoroethoxy)iminoacetamido]-3-[(1,3,4-thiadiazol-2-yl)thiomethyl-]-Δ^3 -O-2-isocephem-4-carboxylic acid trifluoroacetate (syn-isomer) [Example 49]",,≤ 0.025,≤ 0.025,≤ 0.025,,1.56,≤ 0.025,0.1,

# Reference: patent publication US4831026A, “2-oxa-isocephem compounds, compositions containing same and processes of using” (Otsuka Pharmaceutical Co., Ltd., priority 1985, dated 1989)
